The assay has as its system blood sugar. The experiment in a line: Test Example 1: average fall of the blood sugar in rabbits after insulin. In kind it is in vivo, New Zealand rabbits. To be noted: subcutaneous 2 IU/rabbit, level at 0 min = 100%. As for the experimental part: The composition contained insulin at […] (5 insulin units (IU)/rabbit).
The composition was nasally administered to six male New Zealand rabbits at one time, and the average fall of the blood sugar was measured at 0, 15, 30, 60, 120 and 180 min after administration.
For comparison, 2 IU/rabbit of insulin was subcutaneously injected to six male New Zealand rabbits and the average fall of the blood sugar was measured at 0, 60, 120, 240, and 360 min after administration.
The results are shown in Table 1, in which the average fall of the blood sugar is indicated in percentage assuming the blood sugar level at 0 min to be 100%.

For the substance insulin [Control], the “Blood sugar level (% of 0-min level)” value by setting is: (0 min after administration) 100%; (60 min after administration) 57%; (120 min after administration) 56%; (240 min after administration) 84%; (360 min after administration) 94%.

For the origin of these results see patent US5908824A, “Nasally administrable compositions containing physiologically active peptides” (Dott Research Laboratory, priority 1995, dated 1999).
